pEC50: −log10 of the molar value. “Also recorded” adds a separate entry of the source. Where a SMILES comes first, the peptide text is derived from it. [ ]: non-standard residue; d: D form. pGlu = O=C1CC[CH](C(=O)O)N1
Key:
[1] = test system: E16 mouse hippocampal neurons; test: Hippocampal neuron survival (morphology plus MTT conversion, 48 h); assay type: cell-based; settings: for pEC50 / Emax: Mus musculus, Hippocampal neuron, 48 h; for pEC50: read-out: EC50 of neuron survival dose-response; for Emax: read-out: intrinsic activity
Protocol: FIGS. 3A-3E are a series of neuron survival dose response curves of BDNF (FIG. 3A), Compound 1 (also referred to as BD2-1, FIG. 3B) Compound 2 (also referred to as BD2-2, FIG. 3C), Compound 3 (also referred to as BD2-3, FIG. 3D), and Compound 4 (also referred to as BD2-4, FIG. 3E) using Mouse E16 hippocampal neurons. Survival was determined as the total number of cells in each well that were both morphologically intact and filled with blue formazan MTT conversion product (Longo, F. M., Manthorpe, M. Xie, Y. M., and Varon, S. (1997) J Neurosci Res. 48, 1-17). Counts were normalized to survival achieved with 25 ng/mL BDNF. Survival was assessed at 48 hrs.
Hippocampal neurons were prepared from E16-17 mouse embryos as previously described (Yang, T. et al. (2003) J Neurosci 23, 3353-3363). Low density cultures were initiated in poly-L-lysine coated A/2 plates by adding 25 μl of cell suspension (2000 neurons/well; 12,500 cells/cm^2), 25 μl of DMEM containing 10% FBS, and different concentrations of recombinant BDNF, NGF, or TrkB-binding compounds to each well.
After 48 hours in culture, cell survival was assessed as previously described (Longo, F. M., Manthorpe, M., Xie, Y. M., Varon, S. (1997) J Neurosci Res 48, 1-17) using a combination of standard morphological criteria along with visual determination of whether a given cell converted MTT to its blue formazan product. Briefly, the number of surviving neurons was determined by counting the total number of cells in each well that were both morphologically intact and filed with blue product (Longo F. M., Manthorpe. M., Xie, Y. M. Varon, S. (1997) J Neurosci Res 48, 1-17). For each neurotrophin or compound concentration, duplicate wells were counted and the resulting values averaged. […] Counts were normalized to survival achieved with 25 ng/ml BDNF or to baseline survival. Fitting of dose-responsive curves was performed with SIGMAPLOT™ obtained from SYSTAT Software Inc. (Richmond, Calif., United States of America).
In order to understand the mechanisms of action of the BDNF loop 2 mimetics and to test the conjecture that they work via the targeted receptor, TrkB, the dose-dependent relationships of the survival-promoting activities of the mimetics was compared to BDNF using embryonic hippocampal neurons in culture conditions in which BDNF promotes neural survival. In the cultures, neurotrophic activity was mediated by BDNF principally through TrkB and p75^NTR, as they express little TrkA (Brann, A. B., et al. (1999) J Neurosci 19, 8199-8206; Bui, N. T., et al. (2002) J Neurochem 81, 594-605).

DARP32-positive neurons = test: Quinolinic acid-induced death, DARP32-positive neurons only; assay type: cell-based, mouse
Protocol: FIG. 6C is a bar graph of the results of a study similar to that described for FIG. 6B only using Darp32-positive neurons.
A study similar to the one shown in FIG. 6B was conducted in which only DARP32-positive neurons were assessed. DARP32-positive neurons represent the population within the striatum that are particularly vulnerable in HD.

[2] = test system: human SH-SY5Y neuroblastoma cells
Source text: Exposure of SH-SY5Y cells to 1-methyl-4-phenylpyridinium (MPP^+) with resulting cell death is a well-characterized model of Parkinson's disease (PD). […] BDNF has also been previously shown to protect dopaminergic neurons. Further, MPP^+ causes a PD-like condition in primates.
For the Parkinson's disease model assays, human SH-SY5Y cells were used after terminal differentiation into a dopaminergic phenotype (Presgraves. S. P., et al. (2004) Exp Neruol 190, 157-170). Human SH-SY5Y neuroblastoma cells were propagated to confluence in Dulbecco's Modified Eagle's media (DMEM) supplemented with 10% fetal calf serum, 100 μg/mL penicillin, 100 μg/mL streptomycin, 0.25 μg/mL amphotericin B, and […] non-essential amino acids and then sub-cultured for differentiation. For differentiation, the cells were incubated in same media containing 10 μM retinoic acid for 3 days; then the media was removed and replaced with media containing 160 nM of the phorbol ester 12-O-tetradecanoyl-phorbol-13-acetate (TPA) for 3 days of differentiation. The cells were then administered a range dose of BD2-4 or BDNF (1×10^−12 M to […]) in DMEM for 30 mins for three days prior to addition of 100 μM MPP^+. Following transfer of MPP^+ to the media, sister cultures were tested at 6, 12, 24, and 48 hrs for the cytotoxicity of MPP^+ as measured by the MTT and lactate dehydrogenase method (LDH) assays which accurately measure different aspects of cell death. In addition, the neuroprotective effects of a fixed dose of BD2-4 and BDNF on MPP^+ induced cell death were tested for in the presence and absence of TrkB inhibitor K252a (200 nM).

TrkB = target: T1, TrkB (Homo sapiens, UniProt Q16620); test: Trk phosphorylation at Y490, Western blot, NIH3T3 cells expressing TrkB; assay type: cell-based
T1 construct: expressed in transfected cells; host or cells: NIH3T3
Protocol: (§1) CM represents culture medium.
(§2) Western blots were performed as described previously (Yang, T. et al. (2003) J Neurosci 23, 3353-3363). Western blot signals were detected using the ECL Chemiluminescence System obtained by Amersham (Piscataway, N.J., United States of America) (Yang, T. et al. (2003) J Neurosci 23, 3353-3363). To detect the presence of anti-Trk antibodies, blots were probed with horseradish peroxidase-linked goat anti-rabbit IgG obtained from Amersham/Pharmacia Biotech (Piscataway, N.J., United States of America). Signals were detected by the ECL chemiluminescence system obtained from Amersham Biosciences (Piscataway, N.J., United States of America). To control for variation in protein loading, the blot was stripped and reprobed with β-actin monoclonal antibody obtained from Sigma (St. Louis, Mo., United States of America).
(§3) In order to assess the interactions of the BDNF loop 2 mimetic compounds with TrkB receptors, the ability of Compound 4 to activate TrkA, TrkB, and TrkC was compared in a series of Western blotting experiments.
(§4) In the bottom two panels of FIG. 5A, NIH3T3 cells expressing TrkA were used.

[3] = test system: E16 mouse hippocampal neurons; test: Hippocampal neuron survival (morphology plus MTT conversion, 48 h); assay type: cell-based; settings: in the presence of a maximally effective BDNF concentration (50 ng/mL)
TrkC = target: T2, TrkC (Homo sapiens, UniProt Q16288); test: Trk phosphorylation at Y490, Western blot, NIH3T3 cells expressing TrkC; assay type: cell-based
T2 construct: expressed in transfected cells; host or cells: NIH3T3
Protocol: FIG. 5B is a digital composite image of Western blots monitoring TrkC activation as indicated by promotion of Trk phosphorylation at Y490 in NIH3T3 cells expressing TrkC. […] CM represents culture medium.
as §2, §3
In FIG. 5B, NIH3T3 cells expressing TrkC were used. The bottom panel indicates the total amount of TrkC present by probing with anti-TrkC antibodies.

TrkA = target: T3, TrkA (Homo sapiens, UniProt P04629); test: Trk phosphorylation at Y490, Western blot, NIH3T3 cells expressing TrkA; assay type: cell-based
T3 construct: expressed in transfected cells; host or cells: NIH3T3
Protocol: as §1, §2, §3, §4

[4] = test system: E16-17 hippocampal neurons; test: Aβ oligomer-induced neuronal degeneration (Alzheimer's disease model); assay type: cell-based, mouse
Protocol: Neuronal cell survival in culture medium (CM) and with the addition of 10 μM AβScrambled oligomer are shown in the two bars on the left-hand side of the graph […]. Cells were also treated with 10 μM Aβ1-42 alone or in combination with NGF (100 ng/mL), NGF mimetic LM11A-31 (100 nM), a combination of NGF and LM11A-31, Compound 4 (BD2-4, 500 nM), Compound 24 (BD2-24, 500 nM), or either 20 or 100 ng/mL BDNF, as indicated under each bar. […] Mean+SE are shown and ***p<0.001 for survival above CM baseline.
The ability of the BDNF mimetics to prevent Aβ-induced neuronal degeneration was tested as a model of the compounds' ability to treat Alzheimer's disease. E16-17 hippocampal neurons were matured for 6 days and then incubated for 3 days with the indicated combinations of Aβ oligomer preparations (Dahigren, K. N., et al. (2002) J Biol Chem 277, 32046-32053), neurotrophins and neurotrophin mimetics. Following the three day incubation, neuronal survival was assessed using standard morphological criteria (Massa, S. M., et al. (2006) J Neurosci 26, 5288-5300.).

[5] = test system: mouse E16 striatal neurons
Source text: Bars indicate mean±s.e.m.
CM represents culture medium and QUIN represents quinolinic acid. Bars indicate mean±s.e.m and *** indicates p<0.005 student t test.
The K252a inhibitor is a well-characterized inhibitor of TrkB receptor activation.

T3 sequence (P04629 33-796, species assumed): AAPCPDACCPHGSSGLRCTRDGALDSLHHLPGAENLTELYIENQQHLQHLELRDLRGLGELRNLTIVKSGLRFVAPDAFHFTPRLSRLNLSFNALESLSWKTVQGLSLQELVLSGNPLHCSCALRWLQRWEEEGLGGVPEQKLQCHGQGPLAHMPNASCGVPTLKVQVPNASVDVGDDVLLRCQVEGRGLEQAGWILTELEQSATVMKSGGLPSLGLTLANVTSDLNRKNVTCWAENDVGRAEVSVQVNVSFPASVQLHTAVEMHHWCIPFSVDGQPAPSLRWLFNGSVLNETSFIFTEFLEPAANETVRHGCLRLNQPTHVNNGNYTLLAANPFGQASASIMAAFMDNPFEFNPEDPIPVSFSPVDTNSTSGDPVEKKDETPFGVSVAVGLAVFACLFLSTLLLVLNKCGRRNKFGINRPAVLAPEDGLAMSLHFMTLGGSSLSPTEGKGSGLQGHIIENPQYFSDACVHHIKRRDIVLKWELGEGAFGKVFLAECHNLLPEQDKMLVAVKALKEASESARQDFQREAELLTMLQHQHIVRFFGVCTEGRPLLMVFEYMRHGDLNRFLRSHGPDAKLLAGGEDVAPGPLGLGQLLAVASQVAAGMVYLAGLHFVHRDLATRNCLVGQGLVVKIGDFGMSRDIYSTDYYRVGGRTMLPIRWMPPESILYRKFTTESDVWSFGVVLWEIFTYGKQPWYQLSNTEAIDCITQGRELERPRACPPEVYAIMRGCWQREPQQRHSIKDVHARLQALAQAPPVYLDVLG
T2 sequence (Q16288 32-839, species assumed): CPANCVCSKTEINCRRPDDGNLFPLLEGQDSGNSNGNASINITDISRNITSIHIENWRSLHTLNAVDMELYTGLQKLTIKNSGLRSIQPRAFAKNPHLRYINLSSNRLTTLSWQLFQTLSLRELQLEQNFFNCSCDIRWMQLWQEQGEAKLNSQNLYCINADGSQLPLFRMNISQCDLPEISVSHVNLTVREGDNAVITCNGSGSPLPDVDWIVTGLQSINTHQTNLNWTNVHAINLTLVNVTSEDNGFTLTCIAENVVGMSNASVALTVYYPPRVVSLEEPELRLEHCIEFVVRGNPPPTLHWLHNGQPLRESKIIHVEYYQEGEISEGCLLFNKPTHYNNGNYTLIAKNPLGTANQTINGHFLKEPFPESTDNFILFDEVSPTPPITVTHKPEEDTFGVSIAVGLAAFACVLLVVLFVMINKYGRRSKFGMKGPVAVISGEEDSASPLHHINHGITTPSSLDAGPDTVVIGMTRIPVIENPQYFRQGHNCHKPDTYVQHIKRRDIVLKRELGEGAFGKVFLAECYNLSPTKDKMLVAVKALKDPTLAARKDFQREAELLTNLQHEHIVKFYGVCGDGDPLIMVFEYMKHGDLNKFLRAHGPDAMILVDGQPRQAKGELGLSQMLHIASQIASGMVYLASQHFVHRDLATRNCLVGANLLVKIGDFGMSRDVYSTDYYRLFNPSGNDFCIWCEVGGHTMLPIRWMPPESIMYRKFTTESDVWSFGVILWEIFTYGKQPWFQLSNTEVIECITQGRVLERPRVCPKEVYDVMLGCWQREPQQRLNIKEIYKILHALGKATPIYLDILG
T1 sequence (Q16620 32-822, species assumed): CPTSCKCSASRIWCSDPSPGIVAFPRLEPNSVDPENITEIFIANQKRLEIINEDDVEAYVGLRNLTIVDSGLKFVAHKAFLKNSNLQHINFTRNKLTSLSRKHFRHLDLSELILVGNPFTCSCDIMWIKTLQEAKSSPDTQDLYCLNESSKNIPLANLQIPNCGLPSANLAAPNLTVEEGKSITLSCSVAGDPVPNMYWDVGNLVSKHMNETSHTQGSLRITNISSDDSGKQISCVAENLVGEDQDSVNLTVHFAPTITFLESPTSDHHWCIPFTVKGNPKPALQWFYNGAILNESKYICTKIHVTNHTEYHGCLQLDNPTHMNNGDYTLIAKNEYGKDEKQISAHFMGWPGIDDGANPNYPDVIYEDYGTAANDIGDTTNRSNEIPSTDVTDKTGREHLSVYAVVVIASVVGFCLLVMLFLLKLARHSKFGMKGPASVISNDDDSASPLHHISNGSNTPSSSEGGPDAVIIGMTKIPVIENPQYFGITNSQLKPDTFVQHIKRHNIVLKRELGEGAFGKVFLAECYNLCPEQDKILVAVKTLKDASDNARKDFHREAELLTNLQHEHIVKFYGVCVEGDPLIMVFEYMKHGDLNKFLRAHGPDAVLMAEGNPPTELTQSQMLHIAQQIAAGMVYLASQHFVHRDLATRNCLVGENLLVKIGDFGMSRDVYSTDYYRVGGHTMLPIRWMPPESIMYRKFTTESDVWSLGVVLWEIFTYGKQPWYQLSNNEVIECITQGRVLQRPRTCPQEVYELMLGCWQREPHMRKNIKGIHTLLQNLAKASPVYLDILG

In the case of `COC(=O)C(Cc1c[nH]c2ccccc12)NC(=O)C(Cc1c[nH]cn1)NC(=O)C1CCC(=O)N1` (stereo not drawn) [Compound 1] ([pGlu]-His-Trp-OMe; configuration not given here), the pEC50 [1] was 9.00 to 10.00 and the Emax [1] was 50 to 200%.

`NC(=O)NN=C1c2cc(S(=O)(=O)NCCO)ccc2-c2ccc(S(=O)(=O)NCCO)cc21` [Compound 2] showed a pEC50 [1] of 9.00 to 10.00 and an Emax [1] of 50 to 200%.

`CC(=O)Nc1ccc(/C=C(\C#N)c2nn(CCO)c(N)c2C#N)cc1` [Compound 3] gave a pEC50 [1] of 9.00 to 10.00 and an Emax [1] of 50 to 200%.

`O=C(NCCO)c1cc(C(=O)NCCO)cc(C(=O)NCCO)c1` [Compound 4] was tested, and the “protection of DARP32-positive neurons” value (DARP32-positive neurons; quinolinic acid-induced death) was “protects DARP32-positive neurons with an efficacy similar to that of BDNF”, the “block of death-inducing activity of MPP+” value ([2]; MPP+ 100 μM) was “significantly blocked to a similar extent” and the “TrkB activation (Trk phosphorylation at Y490)” value (TrkB) was “activate TrkB”. For the same compound, the “effect on BDNF activity (partial agonism)” value [3] was “partial agonist of BDNF; also recorded: causes an inhibition of BDNF activity”, the “TrkC activation (Trk phosphorylation at Y490)” value (TrkC) was “do not activate TrkC” and the “prevention of death of hippocampal neurons / neurotrophic effect” value ([1]; E16 hippocampal neurons) was “neurotrophic effects similar to that of BDNF; also recorded: prevents the death of E16 hippocampal neurons”. The pEC50 [1] was 9.00 to 10.00, the Emax [1] was 50 to 200% and the “TrkA activation (Trk phosphorylation at Y490)” value (TrkA) was “not TrkA; also recorded: do not”. The “blocking of Aβ-induced degeneration” value [4] was “as effective as BDNF in blocking Aβ-induced degeneration”.

`COc1ccc(-c2csc(N/N=C/c3ccc(O)cc3O)n2)cc1` [Compound 24] was tested, and the “blocking of Aβ-induced degeneration” value [4] was “as effective as BDNF in blocking Aβ-induced degeneration”.

With `COC(=O)[C@@]1(O)C[C@H]2O[C@]1(C)n1c3ccccc3c3c4c(c5c6ccccc6n2c5c31)C(=O)NC4` [Compound K252a] the “effect of K252a on prevention of cell death by BDNF and BD2-4” value (DARP32-positive neurons; DARP32-positive neurons) was “decreased the ability of BDNF and BD2-4 to prevent cell death”, the “effect on cell survival, inhibitor alone” value ([2]; K252a (200 nM) versus culture medium alone) was “small effect on lowering cell survival” and the “effect of K252a on quinolinic acid-induced death” value ([5]; K252a without BDNF or BD2-4) was “no effect on quinolinic acid-induced death”. For the same compound, the “effect of K252a on prevention of death by BDNF and BD2-4” value ([5]; quinolinic acid-treated striatal neurons) was “block the ability of BDNF and BD2-4 to prevent death”.

For `CC[C@H](C)[C@H](N)C(=O)NCCN1CCOCC1` [LM11A-31, reference compound], the “blocking of Aβ-induced degeneration” value [4] was “blocked Aβ-induced degeneration” and the “blocking activity in combination with NGF” value ([4]; LM11A-31 100 nM plus NGF 100 ng/mL, 10 μM Aβ1-42) was “blocked by NGF”.

For `C[n+]1ccc(-c2ccccc2)cc1` [MPP^+, 1-methyl-4-phenylpyridinium], the “cell death, toxin alone” value ([2]; MPP+ 100 μM) was “promotes death of essentially all cells”.

For `O=C(O)c1cccnc1C(=O)O` [quinolinic acid], the death of neurons ([5]; quinolinic acid at 7.5 mM versus culture medium alone) was “approximately 50%”.

Source: patent US8686045B2 (priority 2005, dated 2014)
